In brackets after ≈: the same amount, converted by molar mass.
Experiments:
Cannabinoid receptor 1 [1] = biological target: T1, Cannabinoid receptor 1 (Homo sapiens, UniProt P21554); assay: Antagonist activity at human CB1 receptor expressed in CHO cells assessed as inhibition of forskolin-stimulated cAMP formation by measuring maximum inhibition preincubated with compound for 10 mins followed by forskolin induction and measured after 30 mins by HTRF analysis relative to control; assay type: functional, cell-based; conditions: filed as antagonist, time 40.0 min
T1 sequence (P21554 whole entry): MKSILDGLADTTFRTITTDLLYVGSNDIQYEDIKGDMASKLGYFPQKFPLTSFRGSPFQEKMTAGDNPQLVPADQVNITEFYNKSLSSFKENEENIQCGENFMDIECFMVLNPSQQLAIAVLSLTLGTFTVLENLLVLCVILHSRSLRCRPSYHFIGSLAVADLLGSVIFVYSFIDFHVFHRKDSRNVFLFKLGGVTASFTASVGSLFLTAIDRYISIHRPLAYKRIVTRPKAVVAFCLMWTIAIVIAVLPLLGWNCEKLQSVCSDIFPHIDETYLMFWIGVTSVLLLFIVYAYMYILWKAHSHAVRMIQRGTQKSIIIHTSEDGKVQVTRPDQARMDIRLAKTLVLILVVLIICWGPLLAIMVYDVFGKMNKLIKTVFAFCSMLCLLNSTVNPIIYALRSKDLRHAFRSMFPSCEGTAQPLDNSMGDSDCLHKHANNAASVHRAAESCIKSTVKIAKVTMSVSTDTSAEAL

[2] = biological target: T2, 5-hydroxytryptamine receptor 1A (Homo sapiens, UniProt P08908); assay: Agonist activity at human 5HT1A receptor expressed in HEK293 cells assessed as forskolin-stimulated cAMP formation preincubated with compound for 10 mins followed by forskolin induction and measured after 30 mins by HTRF analysis; assay type: functional, cell-based
T2 sequence (P08908 whole entry): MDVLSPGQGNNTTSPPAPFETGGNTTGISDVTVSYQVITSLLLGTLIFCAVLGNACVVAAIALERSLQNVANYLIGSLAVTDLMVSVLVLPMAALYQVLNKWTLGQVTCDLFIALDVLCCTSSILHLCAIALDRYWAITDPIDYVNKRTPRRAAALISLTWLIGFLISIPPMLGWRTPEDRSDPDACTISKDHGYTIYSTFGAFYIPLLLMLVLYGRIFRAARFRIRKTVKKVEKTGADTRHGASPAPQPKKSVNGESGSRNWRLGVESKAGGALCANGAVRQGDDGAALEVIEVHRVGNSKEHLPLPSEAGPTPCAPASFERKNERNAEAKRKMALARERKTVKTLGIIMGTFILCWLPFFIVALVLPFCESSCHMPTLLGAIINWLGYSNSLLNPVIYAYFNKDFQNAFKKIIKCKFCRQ

[3] = biological target: T3, 5-hydroxytryptamine receptor 1A (Homo sapiens) (UniProt P08908); assay: Agonist activity at human 5HT1A receptor expressed in HEK293 cells assessed as forskolin-stimulated cAMP formation preincubated with compound for 10 mins followed by forskolin induction and measured after 30 mins by HTRF analysis relative to control; assay type: functional, cell-based; conditions: filed as agonist, time 40.0 min
T3 sequence (whole entry): T2 sequence (P08908 whole entry)

[4] = Solubility of compound in phosphate buffer at pH 6.8 by HPLC analysis; assay type: physicochemical
[5] = Half life in ICR mouse at 25 mg/kg, po measured upto 8 hrs by LC-MS/MS analysis; assay type: ADME, organism-based; conditions: in vivo
[6] = Tmax in ICR mouse at 25 mg/kg, po measured upto 8 hrs by LC-MS/MS analysis; assay type: ADME, organism-based; conditions: in vivo
[7] = Cmax in ICR mouse at 25 mg/kg, po measured upto 8 hrs by LC-MS/MS analysis; assay type: ADME, organism-based; conditions: in vivo
[8] = AUClast in ICR mouse at 25 mg/kg, po measured upto 8 hrs by LC-MS/MS analysis; assay type: ADME, organism-based; conditions: in vivo
[9] = Cmax in ICR mouse brain at 25 mg/kg, po measured upto 8 hrs by LC-MS/MS analysis; assay type: ADME, organism-based
Mus musculus [10] = assay: Anxiolytic activity against stress-induced hyperthermia in ip dosed ICR mouse assessed as reduction in basal core rectal temperature measured for 60 mins; assay type: functional, organism-based; conditions: dose 3-10 mg/kg
Mus musculus [11] = assay: Anxiolytic activity against stress-induced hyperthermia in ip dosed ICR mouse assessed as reduction in delta temperature measured for 60 mins; assay type: functional, organism-based; conditions: dose 1-10 mg/kg
Cannabinoid receptor 1 [12] = biological target: T1, Cannabinoid receptor 1; assay: Antagonist activity at human CB1 receptor expressed in CHO cells assessed as inhibition of forskolin-stimulated cAMP formation preincubated with compound for 10 mins followed by forskolin induction and measured after 30 mins by HTRF analysis; assay type: functional, cell-based
Cannabinoid receptor 2 [13] = biological target: T4, Cannabinoid receptor 2 (Homo sapiens, UniProt P34972); assay: Partial agonist activity at human CB2 receptor expressed in CHO cells assessed as forskolin-stimulated cAMP formation preincubated with compound for 10 mins followed by forskolin induction and measured after 30 mins by HTRF analysis; assay type: functional, cell-based
T4 sequence (P34972 whole entry): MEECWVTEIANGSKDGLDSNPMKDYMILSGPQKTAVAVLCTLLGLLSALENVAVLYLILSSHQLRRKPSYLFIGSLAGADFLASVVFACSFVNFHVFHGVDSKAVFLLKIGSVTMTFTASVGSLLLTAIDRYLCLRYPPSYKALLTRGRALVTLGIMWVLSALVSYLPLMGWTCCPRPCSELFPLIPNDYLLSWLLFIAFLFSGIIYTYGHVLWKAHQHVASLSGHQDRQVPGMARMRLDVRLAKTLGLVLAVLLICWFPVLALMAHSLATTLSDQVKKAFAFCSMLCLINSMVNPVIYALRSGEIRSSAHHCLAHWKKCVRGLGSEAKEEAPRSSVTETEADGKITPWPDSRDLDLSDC

Cannabinoid receptor 2 [14] = biological target: T4, Cannabinoid receptor 2; assay: Partial agonist activity at human CB2 receptor expressed in CHO cells assessed as forskolin-stimulated cAMP formation preincubated with compound for 10 mins followed by forskolin induction and measured after 30 mins by HTRF analysis relative to control; assay type: functional, cell-based; conditions: filed as partial agonist, time 40.0 min
Cannabinoid receptor 2 [15] = biological target: T4, Cannabinoid receptor 2; assay: Agonist activity at human CB2 receptor expressed in CHO cells assessed as forskolin-stimulated cAMP formation preincubated with compound for 10 mins followed by forskolin induction and measured after 30 mins by HTRF analysis; assay type: functional, cell-based
Cannabinoid receptor 2 [16] = biological target: T4, Cannabinoid receptor 2; assay: Agonist activity at CB2 receptor (unknown origin); assay type: functional

SMILES	Imax (Cannabinoid receptor 1 [1]) [%]	IC50 (Cannabinoid receptor 1 [12]) [nM]	EC50 (Cannabinoid receptor 2 [15]) [nM]	further results
C=C(C)[C@@H]1CCC(C)=C[C@H]1c1c(O)cc(CCCCC)cc1O [CANNABIDIOL]	88.3			EC50 [2]: 4200 nM; Emax [3]: 64%; solubility [4]: 0.04 µg/mL (≈ 0.127 µM); half-life [5]: 4.3 h; Tmax [6]: 0.7 h; Cmax [7]: 145 ng/mL; AUC(0-t) at 8 h [8]: 289 ng·h/mL; Cmax [9]: 239 ng/g
CN1C(=O)CN=C(c2ccccc2)c2cc(Cl)ccc21				Activity (Mus musculus [10]): Dose-Dependent Effect; Activity (Mus musculus [11]): Dose-Dependent Effect
C=C(C)[C@@H]1CCC(C)=C[C@H]1c1ccc(C2CC2)c(C(N)=O)c1O	108	6500		EC50 (Cannabinoid receptor 2 [13]): 560 nM; Emax (Cannabinoid receptor 2 [14]): 44.7%; half-life [5]: 2.9 h; Tmax [6]: 0.4 h; Cmax [7]: 90.4 ng/mL; AUC(0-t) at 8 h [8]: 170 ng·h/mL
C=Cc1cc(O)c([C@@H]2C=C(C)CC[C@H]2C(=C)C)c(O)c1	83.3	6400	> 10	
C=C(C)[C@@H]1CCC(C)=C[C@H]1c1c(O)cc(C2CC2)cc1O	94	4400	> 10	
C=C(C)[C@@H]1CCC(C)=C[C@H]1c1c(O)cc(C(C)(C)CCCC)c(C(=O)NC)c1O	104	4400	> 10000	
Cc1ccc(CC2CN(C(=O)C3C(C)(C)[C@@H]4CC[C@]3(C)C4)N=C2c2ccc(Cl)c(C)c2)cc1 (some centres undefined)				EC50 (Cannabinoid receptor 2 [16]): 190 nM
C=C(C)[C@@H]1CCC(C)=C[C@H]1c1c(O)cc(C2CC2)c(C(=O)NC)c1O		> 10000	> 10000	
C=C(C)[C@@H]1CCC(C)=C[C@H]1c1c(O)cc(CCCCC)c(C(=O)NC2CC2)c1O	88.9	2300	> 10	
C=C(C)[C@@H]1CCC(C)=C[C@H]1c1c(O)cc(CCCCC)c(C(=O)NCCCCC)c1O		> 10000	> 10	
C=C(C)[C@@H]1CCC(C)=C[C@H]1c1c(O)cc(-c2ccccc2)cc1O		> 10000	> 10	
C=C(C)[C@@H]1CCC(C)=C[C@H]1c1c(O)cc(CCCCC)c(C(=O)NCCN(C)C)c1O		> 10000	> 10	
C=C(C)[C@@H]1CCC(C)=C[C@H]1c1c(O)cc(C2(CCCC)CC2)c(C(=O)N(C)C)c1O	87.2	2700		EC50 (Cannabinoid receptor 2 [13]): 755 nM; Emax (Cannabinoid receptor 2 [14]): 47.2%; half-life [5]: 1.7 h; Tmax [6]: 0.7 h; Cmax [7]: 62.7 ng/mL; AUC(0-t) at 8 h [8]: 115 ng·h/mL
C=C(C)[C@@H]1CCC(C)=C[C@H]1c1c(O)cc(C)cc1O	115	6300	> 10000	
C=C(C)[C@@H]1CCC(C)=C[C@H]1c1c(O)cc(CCC)cc1O [CANNABIDIVARIN]	94.9	5600	> 10	
C=C(C)[C@@H]1CCC(C)=C[C@H]1c1c(O)cc(CCCCC)c(C(=O)NC)c1O	75.3	2600	> 10	solubility [4]: 0.7 µg/mL (≈ 1.88 µM)
C=C(C)[C@@H]1CCC(C)=C[C@H]1c1c(O)cc(C(C)C)cc1O	94	18	> 10	
C=C(C)[C@@H]1CCC(C)=C[C@H]1c1c(O)cc(CCCCC)c(C(=O)N(C)C)c1O	88.9	6900		EC50 (Cannabinoid receptor 2 [13]): 1010 nM; Emax (Cannabinoid receptor 2 [14]): 73.6%; solubility [4]: 3 µg/mL (≈ 7.78 µM); half-life [5]: 1.7 h; Tmax [6]: 0.4 h; Cmax [7]: 22.2 ng/mL; AUC(0-t) at 8 h [8]: 26.3 ng·h/mL
C=C(C)[C@@H]1CCC(C)=C[C@H]1c1c(O)cc(C2CCCC2)cc1O				EC50 (Cannabinoid receptor 2 [13]): 113 nM; Emax (Cannabinoid receptor 2 [14]): 76.3%; half-life [5]: 1.8 h; Tmax [6]: 1 h; Cmax [7]: 514 ng/mL; AUC(0-t) at 8 h [8]: 1080 ng·h/mL
C=C(C)[C@@H]1CCC(C)=C[C@H]1c1c(O)cc(C#CC)cc1O	96.7	3300	> 10	
C=C(C)[C@@H]1CCC(C)=C[C@H]1c1c(O)cc(-c2ccccn2)cc1O	92.1	6300	> 10	
C=C(C)[C@@H]1CCC(C)=C[C@H]1c1c(O)cc(C2(CCCC)CC2)c(C(=O)NC)c1O	91.1	2200	> 10000	
C=C(C)[C@@H]1CCC(C)=C[C@H]1c1c(O)cc(C2CCCCC2)cc1O				EC50 (Cannabinoid receptor 2 [13]): 55.2 nM; Emax (Cannabinoid receptor 2 [14]): 62.7%; half-life [5]: 2.7 h; Tmax [6]: 0.8 h; Cmax [7]: 216 ng/mL; AUC(0-t) at 8 h [8]: 616 ng·h/mL
C=C(C)[C@@H]1CCC(C)=C[C@H]1c1c(O)cc(C(=O)CCCC)cc1O	82.9	9900		EC50 (Cannabinoid receptor 2 [13]): 4690 nM; Emax (Cannabinoid receptor 2 [14]): 75.7%
C=C(C)[C@@H]1CCC(C)=C[C@H]1c1c(O)cc(CCCCC)c(C(N)=O)c1O	86.3	2700	> 10	solubility [4]: 0.6 µg/mL (≈ 1.68 µM)
